Measurements published in ChEMBL document CHEMBL4011593, “Development of 2, 4-diaminoquinazoline derivatives as potent PAK4 inhibitors by the core refinement strategy” (Eur J Med Chem, 2017).

Molecular target: T1, Serine/threonine-protein kinase PAK 4 (Homo sapiens, UniProt O96013)
Assay: Inhibition of recombinant human N-terminal GST-fused PAK4 (1 to 591 residues) expressed in baculovirus expression system using S2 as substrate measured after 40 mins by HTRF assay
Settings: not given

T1 sequence (O96013 whole entry, the tested form may be a part): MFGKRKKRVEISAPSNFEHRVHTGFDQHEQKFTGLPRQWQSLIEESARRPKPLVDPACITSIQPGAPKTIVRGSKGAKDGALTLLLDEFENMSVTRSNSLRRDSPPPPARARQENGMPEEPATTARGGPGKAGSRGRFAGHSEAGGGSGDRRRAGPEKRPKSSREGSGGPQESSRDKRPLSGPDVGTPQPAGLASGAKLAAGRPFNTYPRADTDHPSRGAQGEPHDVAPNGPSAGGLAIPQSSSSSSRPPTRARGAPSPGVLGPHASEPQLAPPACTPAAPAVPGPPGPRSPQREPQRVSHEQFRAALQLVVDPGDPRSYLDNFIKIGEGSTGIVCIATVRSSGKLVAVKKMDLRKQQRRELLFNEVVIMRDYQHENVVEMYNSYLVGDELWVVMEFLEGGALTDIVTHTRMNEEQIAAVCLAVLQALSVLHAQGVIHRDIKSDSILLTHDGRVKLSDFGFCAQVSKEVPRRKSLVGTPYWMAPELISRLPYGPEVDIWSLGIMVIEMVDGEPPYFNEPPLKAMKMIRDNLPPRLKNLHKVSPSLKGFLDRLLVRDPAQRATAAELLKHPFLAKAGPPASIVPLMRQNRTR

Row | SMILES | IC50
1 | Clc1ccc2nc(Nc3ccc4[nH]nnc4c3)nc(NCCc3c[nH]c4ccccc34)c2c1 | 1160 nM
2 | COc1ccc2nc(NCCc3c[nH]c4ccccc34)nc(Nc3ccc4[nH]ncc4c3)c2c1 | 1510 nM
3 | Clc1ccc2nc(Nc3cc(Cl)c4[nH]ncc4c3)nc(NCCc3c[nH]c4ccccc34)c2c1 | 937 nM
4 | Cc1cc(Nc2nc(NCCc3c[nH]c4ccccc34)c3cc(Cl)ccc3n2)cc2cn[nH]c12 | 2330 nM
5 | O=C1Cc2cc(Nc3nc(NCCc4c[nH]c5ccccc45)c4cc(Cl)ccc4n3)ccc2N1 | 1760 nM
6 | Clc1ccc2nc(Nc3cnc4[nH]ncc4c3)nc(NCCc3c[nH]c4ccccc34)c2c1 | 633 nM

Next, values leading:

Row | IC50 | SMILES
7 | 483 nM | COc1ccc2c(Nc3ccc4[nH]ncc4c3)nc(NCCc3c[nH]c4ccccc34)nc2c1
8 | 1060 nM | Clc1ccc2nc(Nc3cc(Br)c4[nH]ncc4c3)nc(NCCc3c[nH]c4ccccc34)c2c1
9 | 2040 nM | Clc1ccc2nc(Nc3ccc4cn[nH]c4c3)nc(NCCc3c[nH]c4ccccc34)c2c1
10 | 3070 nM | Clc1ccc2nc(Nc3ccc4[nH]cnc4c3)nc(NCCc3c[nH]c4ccccc34)c2c1

Molecular target: T1, Serine/threonine-protein kinase PAK 4
Assay: Inhibition of myc-tagged PAK4 (unknown origin) using histone H3 as substrate preincubated for 30 mins followed by substrate addition measured for 30 mins in presence of [gamma-32P]ATP by autoradiographic method
Settings: not given

Row | IC50 | SMILES
11 | 14500 nM | COc1cccc(Nc2nc(NCC3CCCO3)c3ccccc3n2)c1 (configuration not stated)

Test system: not listed separately
Assay: Oral bioavailability in metastatic solid tumor patient
Assay type: ADME, organism-based
Settings: human, in vivo

Row | bioavailability | SMILES
12 | 1% | Cc1nc(Nc2n[nH]c3c2CN(C(=O)N[C@H](CN(C)C)c2ccccc2)C3(C)C)c2sccc2n1 [PF-03758309]
